pIC50: −log10 of the molar value. Activity calls are given as the source filed them. No cut-off for these calls is given here.
Key:
J774 [1] = experiment: Cytotoxicity against mouse J774 cells at 12.5 uM incubated for 72 hrs by MTT assay relative to control; type: toxicity, cell-based; conditions: j774, 72 h
Leishmania donovani [2] = experiment: Antileishmanial activity against Leishmania donovani promastigotes at 25 uM measured after 48 hrs by MTT assay relative to control; type: functional
Splenocyte = experiment: Immunostimulatory activity in mouse splenocyte assessed as fold increase in IL-12 synthesis at 10 to 40 mg/kg measured after 1 week by RT-PCR analysis; type: functional; conditions: dose 10-40 mg/kg; time 1 weeks
J774 [3] = experiment: Cytotoxicity against mouse J774 cells at 25 uM incubated for 72 hrs by MTT assay relative to control; type: toxicity, cell-based; conditions: j774, 72 h
Leishmania donovani [4] = experiment: Induction of cell cycle arrest in Leishmania donovani promastigotes assessed as accumulation of cells at S phase at 25 uM measured after 12 hrs by PI staining based flow cytometry analysis (reference value: 28.6%); type: functional
J774 [5] = experiment: Downregulation of CREB enrichment in mouse J774 macrophage infected with Leishmania donovani at 25 uM measured after 4 hrs by ChIP assay; type: functional, cell-based
[6] = Stability of the compound in stimulated intestinal fluid at 10 ug/ml at pH 6.8 measured after 120 min by HPLC analysis; type: ADME; conditions: simulated intestinal fluid, at 10 µg/mL, read-out: Stability
Leishmania donovani [7] = experiment: Antileishmanial activity against Leishmania donovani promastigotes assessed as decrease in intracellular proline level at 25 uM measured after 24 hrs (reference value: 6.27 mM); type: functional
J774 [8] = experiment: Downregulation of CREB phosphorylation level at Ser133 residue in mouse J774 macrophage infected with Leishmania donovani at 25 uM measured after 12 to 16 hrs by immunoblot analysis; type: functional, cell-based; conditions: time 12-16 hrs
Leishmania donovani [9] = experiment: Induction of apoptosis in Leishmania donovani promastigotes assessed as appearance of disorganised mitochondrial cristae at 25 uM by transmission electron microscopy analysis; type: functional, organism-based
Leishmania donovani [10] = experiment: Induction of cell cycle arrest in Leishmania donovani promastigotes assessed as accumulation of cells at G1 phase at 25 uM measured after 4 hrs by PI staining based flow cytometry analysis (reference value: 35.7%); type: functional
Leishmania donovani [11] = experiment: Antileishmanial activity against Leishmania donovani promastigotes measured after 48 hrs by MTT assay; type: functional, organism-based
Leishmania donovani [12] = experiment: Induction of apoptosis in Leishmania donovani promastigotes assessed as appearance of intense swelling in mitochondria at 25 uM by transmission electron microscopy analysis; type: functional, organism-based
J774 [13] = experiment: Downregulation of GSK-3beta phosphorylation in mouse J774 macrophage infected with Leishmania donovani at 25 uM measured after 8 to 12 hrs by immunoblot analysis; type: functional, cell-based; conditions: time 8-12 hrs
Leishmania donovani [14] = experiment: Induction of cell cycle arrest in Leishmania donovani promastigotes assessed as accumulation of cells at G2/M phase at 25 uM measured after 24 hrs by PI staining based flow cytometry analysis (reference value: 35.7%); type: functional
[15] = Toxicity in BALB/c mouse assessed as effect on skin texture at 10 to 40 mg/kg, po measured after 1 week; type: organism-based; conditions: in vivo, 168 h, dose 10-40 mg/kg, time 1 weeks
Leishmania donovani [16] = experiment: Induction of autophagy in Leishmania donovani promastigotes assessed as increase in number of MDC-positive parasite by measuring MDC-labelled vacuoles at 25 uM measured after 24 hrs by MDC staining based analysis; type: functional, organism-based
Leishmania donovani [17] = experiment: Induction of cell cycle arrest in Leishmania donovani promastigotes assessed as accumulation of cells at S phase at 25 uM measured after 8 hrs by PI staining based flow cytometry analysis (reference value: 28.6%); type: functional
Leishmania donovani [18] = experiment: Induction of cell cycle arrest in Leishmania donovani promastigotes assessed as accumulation of cells at S phase at 25 uM measured after 4 hrs by PI staining based flow cytometry analysis (reference value: 28.6%); type: functional
J774 [19] = experiment: Immunostimulatory activity in mouse J774 macrophage infected with Leishmania donovani assessed as decrease in IL-10 level at 25 uM measured after 24 hrs by RT-PCR analysis relative to control; type: functional; set-up: scale not given: the % may be the effect or the level left
Leishmania donovani [20] = experiment: Induction of apoptosis in Leishmania donovani promastigotes assessed as late phase apoptosis at 25 uM measured after 48 hrs by DNA laddering assay; type: functional, organism-based
J774 [21] = experiment: Immunostimulatory activity in mouse J774 macrophage infected with Leishmania donovani promastigotes assessed as fold increase in iNOS mRNA expression at 25 uM measured after 48 hrs in presence of nitric oxide by spectrophotometer analysis; type: functional
J774 [22] = experiment: Cytotoxicity against mouse J774 cells at 50 uM incubated for 72 hrs by MTT assay relative to control; type: toxicity, cell-based; conditions: j774, 72 h
Leishmania donovani [23] = experiment: Induction of cell cycle arrest in Leishmania donovani promastigotes assessed as accumulation of cells at S phase at 25 uM measured after 24 hrs by PI staining based flow cytometry analysis (reference value: 28.6%); type: functional
Leishmania donovani [24] = experiment: Antileishmanial activity against amastigote form of Leishmania donovani infected in BALB/c mouse assessed as inhibition of parasite growth in spleen at 20 mg/kg, po measured after 1 week post treatment by geimsa staining based analysis relative to control; type: functional; set-up: scale not given: the % may be the effect or the level left; conditions: time 1 weeks
Leishmania donovani [25] = experiment: Antileishmanial activity against Leishmania donovani promastigotes at 25 uM measured after 12 hrs by luciferase assay relative to control; type: functional
J774 [26] = experiment: Downregulation of Akt phosphorylation in mouse J774 macrophage infected with Leishmania donovani at 25 uM measured after 4 to 8 hrs by immunoblot analysis; type: functional, cell-based; conditions: time 4-8 hrs

Question: Which Activity (J774 [1]) does the source give for Cn1c(-c2ccc(OCC(=O)Nc3ccccn3)cc2)nc2ccccc2c1=O here?
Answer: Its Activity is 90.78%.

Question: And the Activity (Leishmania donovani [2])?
Answer: Its Activity is 85.64%.

Question: And the “fold change (FC)” value (Splenocyte)?
Answer: Its value is 4.96.

Question: And the Activity (J774 [3])?
Answer: The Activity was 79.57%.

Question: And the Activity (Leishmania donovani [4])?
Answer: Its Activity is 15.5%.

Question: What about the Activity (J774 [5]) of the same compound?
Answer: The Activity was “Active”.

Question: What about the remaining at 2 h, 10 ug/ml [6] of the same compound?
Answer: The remaining at 2 h, 10 ug/ml was 97.5%.

Question: And the Activity (Leishmania donovani [7])?
Answer: Its Activity is 2.96 mM.

Question: What about the Activity (J774 [8]) of the same compound?
Answer: Its Activity is “Active”.

Question: And the Activity (Leishmania donovani [9])?
Answer: Its Activity is “Active”.

Question: What about the Activity (Leishmania donovani [10]) of the same compound?
Answer: Its Activity is 43.8%.

Question: And the pIC50 (Leishmania donovani [11])?
Answer: Its pIC50 is 5.47.

Question: What about the Activity (Leishmania donovani [12]) of the same compound?
Answer: The Activity was “Active”.

Question: What about the Activity (J774 [13]) of the same compound?
Answer: The Activity was “Active”.

Question: What about the Activity (Leishmania donovani [14]) of the same compound?
Answer: Its Activity is 13.9%.

Question: And the Activity [15]?
Answer: Its Activity is “Non-Toxic”.

Question: And the Activity (Leishmania donovani [16])?
Answer: Its Activity is “Active”.

Question: What about the Activity (Leishmania donovani [17]) of the same compound?
Answer: Its Activity is 20.7%.

Question: What about the Activity (Leishmania donovani [18]) of the same compound?
Answer: Its Activity is 25.6%.

Question: What about the Activity (J774 [19]) of the same compound?
Answer: Its Activity is 72.23%.

Question: And the Activity (Leishmania donovani [20])?
Answer: Its Activity is “Active”.

Question: And the “fold change (FC)” value (J774 [21])?
Answer: The value was 4.87.

Question: And the Activity (J774 [22])?
Answer: The Activity was 52.15%.

Question: What about the Activity (Leishmania donovani [23]) of the same compound?
Answer: The Activity was 13.9%.

Question: What about the Activity (Leishmania donovani [24]) of the same compound?
Answer: Its Activity is greater than 50%.

Question: And the Activity (Leishmania donovani [25])?
Answer: The Activity was 11.8%.

Question: And the Activity (J774 [26])?
Answer: Its Activity is “Active”.
